Patent publication US8853246B2 (Dow AgroSciences LLC, priority 2009, dated 2014)

Legend:
[1] = tested on: Green Peach Aphid (Myzus Persicae); test: Insecticidal test for green peach aphid in foliar spray assay (col. MYZUPE); type: in vivo; conditions: green peach aphid; for pest or weed control at 200 ppm: Myzus persicae, 72 h, read-out: MYZUPE 200 ppm (Corrected % Control, rating)
Outline: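 Cabbage seedlings with 2-3 true leaves, infested with 20-50 wingless adult and nymph aphids one day earlier, sprayed to runoff at 200 ppm (acetone/methanol stock diluted in 0.025% Tween 20), four pots per treatment. After 3 days at ~25 °C, 40% RH, live aphids counted; corrected % control versus solvent-sprayed plants.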

[2] = tested on: Cotton Aphid (Aphis Gossypii); test: Insecticidal test for cotton aphid in foliar spray assay (col. APHIGO); type: in vivo; conditions: for pest or weed control at 200 ppm: Aphis gossypii, 72 h, read-out: APHIGO 200 ppm (Corrected % Control, rating)
Experimental: The compounds were tested against cotton aphid, green peach aphid, and sweet potato whitefly using procedures described in the following examples and reported in Table 2.
In each case of Table 2, the rating scale is as follows at 200 ppm.
Insecticidal Test for Cotton Aphid (Aphis Gossypii) in Foliar Spray Assay
Squash or cotton seedlings with fully expanded cotyledon leaves were trimmed to one cotyledon per plant and infested with cotton aphid (wingless adult and nymph) one day prior to chemical application. Each plant was examined before chemical application to ensure uniform infestation (ca. 30-70 aphids per plant). Compounds (2 mg) were dissolved in 2 mL of acetone/methanol (1:1) solvent, forming stock solutions of 1000 ppm. The stock solutions were diluted 5× with 0.025% Tween 20 in H2O to obtain a solution at 200 ppm. A hand-held Devilbiss aspirator type sprayer was used to apply the spray solutions until runoff to both sides of the squash cotyledon leaves. Four plants (4 replications) were used for each concentration of each compound. Reference plants (solvent check) were sprayed with the diluent only. Treated plants were held in a holding room for three days at approximately 25° C. and 40% RH before the number of live aphids on each plant was recorded. Insecticidal activity was measured by Corrected % Control using Abbott's correction formula and presented in Table 2 (see col. “APHIGO”): Corrected % Control=100*(X−Y)/X • where X=No. of live aphids on solvent check plants • Y=No. of live aphids on treated plants

[3] = tested on: Sweetpotato Whitefly-Crawler (Bemisia Tabaci); test: Insecticidal test for sweetpotato whitefly-crawler in foliar spray assay (col. BEMITA); type: in vivo; conditions: sweetpotato whitefly-crawler; for pest or weed control at 200 ppm: Bemisia tabaci, read-out: BEMITA 200 ppm (Corrected % Control, rating)
Outline: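 Cotton plants (one 3-5 cm true leaf) infested with whitefly eggs (100-300/plant), held 5-6 days at 82° F, 50% RH until crawlers developed. Sprayed to runoff at 200 ppm (acetone stock diluted in 0.025% Tween 20), four plants per treatment. Live nymphs counted after 8-9 days; % control by Abbott's correction versus solvent check.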

Row | Compound | pest or weed control at 200 ppm [1] [%] | pest or weed control at 200 ppm [2] [%] | pest or weed control at 200 ppm [3] [%] | melting point [°C] | MYZUPE 200 ppm (Corrected % Control, rating) [1] | APHIGO 200 ppm (Corrected % Control, rating) [2] | BEMITA 200 ppm (Corrected % Control, rating) [3]
1 | CN(C(=O)OC(C)(C)C)c1sc(-c2cccnc2)nc1Br [Compound 242, (4-bromo-2-pyridin-3-yl-thiazol-5-yl)-methyl-carbamic acid tert-butyl ester] | 80 to 100 | < 80 | 80 to 100 | 88 to 91 | – | – | –
2 | CCN(C(=O)C(C)CS(C)(=O)=O)c1sc(-c2cccnc2)nc1C (stereo not drawn) [Compound 235] | – | – | – | – | A (80-100) | A (80-100) | A (80-100)
3 | CCN(C(=O)CCSC)c1sc(-c2cncc(F)c2)nc1Cl [Compound 274] | 80 to 100 | 80 to 100 | 80 to 100 | – | – | – | –
4 | CSCC(C)C(=O)N(C)c1sc(-c2cncc(F)c2)nc1Cl (stereo not drawn) [Compound 262] | 80 to 100 | 80 to 100 | 80 to 100 | – | – | – | –
5 | CSCC(C)C(=O)N(C)c1sc(-c2cccnc2)nc1Cl (stereo not drawn) [Compound 227, N-(4-chloro-2-pyridin-3-yl-thiazol-5-yl)-2,N-dimethyl-3-methylsulfanyl-propionamide] | 80 to 100 | 80 to 100 | 80 to 100 | – | – | – | –
6 | CCN(C(=O)C(C)(C)CSC)c1sc(-c2cncc(F)c2)nc1C [Compound 255] | 80 to 100 | 80 to 100 | 80 to 100 | – | – | – | –
7 | CSCCC(=O)N(C)c1cnc(-c2cccnc2)s1 [Compound 19, N-methyl-3-methylsulfanyl-N-(2-pyridin-3-yl-thiazol-5-yl)-propionamide] | 80 to 100 | < 80 | < 80 | – | – | – | –
8 | CN(C(=O)OC(C)(C)C)c1sc(-c2cccnc2)nc1Cl [Compound 228, (4-chloro-2-pyridin-3-yl-thiazol-5-yl)-methyl-carbamic acid tert-butyl ester] | 80 to 100 | 80 to 100 | 80 to 100 | 119 to 122 | – | – | –
9 | CCN(C(=O)C(C)C[S+](C)[O-])c1sc(-c2cccnc2)nc1C (stereo not drawn) [Compound 234] | 80 to 100 | 80 to 100 | 80 to 100 | – | – | – | –
10 | CN(C(=O)CC[S+](C)[O-])c1sc(-c2cncc(F)c2)nc1Cl (stereo not drawn) [Compound 272] | 80 to 100 | 80 to 100 | 80 to 100 | 123 to 126 | – | – | –
11 | C=CC[S+]([O-])CC(C)C(=O)Nc1sc(-c2cncc(F)c2)nc1C (stereo not drawn) [Compound 229] | 80 to 100 | 80 to 100 | < 80 | 170 to 174 | – | – | –
12 | CC(C[S+](C)[O-])C(=O)N(C)c1sc(-c2cncc(F)c2)nc1Cl (stereo not drawn) [Compound 270] | 80 to 100 | < 80 | 80 to 100 | – | – | – | –
13 | CN(C(=O)OC(C)(C)C)c1cnc(-c2cncc(F)c2)s1 [Compound 243] | 80 to 100 | 80 to 100 | 80 to 100 | 148 to 151 | – | – | –
14 | CC(C[S+](C)[O-])C(=O)N(C)c1sc(-c2cccnc2)nc1Cl (stereo not drawn) [Compound 230] | 80 to 100 | 80 to 100 | 80 to 100 | – | – | – | –
15 | C=CCSCC(C)C(=O)Nc1sc(-c2cncc(F)c2)nc1C (stereo not drawn) [Compound 226] | 80 to 100 | 80 to 100 | 80 to 100 | 76 to 79 | – | – | –
16 | CCN(C(=O)C(C)(C)CS(C)(=O)=O)c1sc(-c2cccnc2)nc1C [Compound 250] | 80 to 100 | < 80 | < 80 | – | – | – | –
17 | CCN(C(=O)C(C)C)c1sc(-c2cccnc2)nc1C [Compound 233] | 80 to 100 | 80 to 100 | 80 to 100 | – | – | – | –
18 | CCN(C(=O)C(C)C)c1sc(-c2cncc(F)c2)nc1C [Compound 253] | 80 to 100 | 80 to 100 | 80 to 100 | – | – | – | –
19 | CCN(C(=O)C(C)CSC)c1sc(-c2cccnc2)nc1C (stereo not drawn) [Compound 210] | 80 to 100 | 80 to 100 | 80 to 100 | – | – | – | –
20 | CCN(C(=O)C(C)CSC)c1sc(-c2cncc(F)c2)nc1C (stereo not drawn) [Compound 240] | 80 to 100 | 80 to 100 | 80 to 100 | – | – | – | –
21 | CSC(C)CC(=O)Nc1sc(-c2cncc(F)c2)nc1C (stereo not drawn) [Compound 218] | 80 to 100 | 80 to 100 | 80 to 100 | 130 to 133 | – | – | –
22 | CCN(C(=O)OC(C)(C)C)c1cnc(-c2cncc(F)c2)s1 [Compound 245] | 80 to 100 | 80 to 100 | 80 to 100 | 89 to 92 | – | – | –
23 | COc1ccc(CN(C(=O)OC(C)(C)C)c2cnc(-c3cccnc3)s2)cc1 [Compound 244] | < 80 | < 80 | < 80 | 124 to 126 | – | – | –
